Experimental data: patent US9403756B2, “N-phenyl anthranilic acid derivatives and uses thereof” (Ramot at Tel-Aviv University Ltd., priority 2007, dated 2016)
Entries after “also recorded” stand apart in the source; their conditions may differ. Read-outs that look alike come from different tables or passages of the source.

How the values were obtained:
DRG neurons [1] = assay: Current-clamp recordings in cultured DRG neurons; type: cell-based, rat
Procedure: For dorsal root ganglion (DRG) neuronal cultures, ganglia were dissected from 2-5 day-old Sprague-Dawley rats killed by decapitation. DRGs were placed in Hank's balanced saline solution (HBSS) and prepared by enzymatic dissociation. Briefly, after 30 minutes incubation in 5 mg/ml dispase, 2 mg/ml collagenase type 1A and 0.1 mg/ml DNase (Invitrogen/Gibco, Carlsbad, Calif.) in Ca^2+ and Mg^2+-free HBSS, the ganglia were mechanically triturated with a fire-polished glass Pasteur pipette. The ganglia were then centrifuged for 5 minutes at 80×g and resuspended in DMEM supplemented with 2 mM L-glutamine, 16.5 mM NaHCO3, 6 g/l glucose, 5 ml penicillin/streptomycin and 10% fetal calf serum.
For electrophysiological recording, dissociated neurons were plated on 13 mm glass coverslips, previously coated with poly-D-lysine (1 mg/ml) and laminin (10 μg/ml) and used at 1-2 days in culture.
For current-clamp recordings in primary cultured neurons, the patch pipettes were filled with (in mM): 135 KCl, 1 K2ATP, 1 MgATP, 2 EGTA, 1.1 CaCl2, 5 glucose, 10 HEPES, adjusted with KOH at pH 7.4 (315 mOsm). The external solution contained (in mM): 150 NaCl, 2.5 KCl, 2 CaCl2, 2 MgCl2, 15 glucose, 10 HEPES, adjusted with NaOH at pH 7.4 (325 mOsm). Recordings were sampled at 5 kHz and filtered at 2 KHz via a 4-pole Bessel low pass filter. A liquid junction potential of about −15.6 mV was measured between the intracellular and saline solutions and corrected on-line.
For evoking spike discharges, 75-200 pA square depolarizing current pulses were injected into neurons for 400 ms. For rheobase current measurements, 100-1100 pA square depolarizing current pulses were injected into neurons for 2 ms.

Kv7.2/3 channels = target: T1, Kv7.2/3 channels (Homo sapiens, UniProt O43525+O43526); assay: Kv7.2/3 channels coexpressed in CHO cells, whole-cell patch-clamp; type: cell-based; conditions: for Activity: M-channel modulation, Kv7.2 and Kv7.3 subunits coexpressed in CHO cells; for EC50: read-out: EC50
T1 construct: expressed in transfected cells; host or cells: CHO cells
Procedure: Chinese hamster ovary (CHO) cells were grown in Dulbecco's modified Eagle's medium (DMEM) supplemented with 2 mM glutamine, 10% fetal calf serum and antibiotics. Briefly, 40,000 cells seeded on poly-D-lysine-coated glass coverslips (13 mm diameter) in a 24-multiwell plate were transfected with pIRES-CD8 (0.5 μg) as a marker for transfection, and with Kv7.2 (0.5 μg) and Kv7.3 (0.5 μg) or TRPV1 […] or TRPV6 […].
For electrophysiology, transfected cells were visualized approximately 40 hours following transfection, using anti-CD8 antibody-coated beads. Transfection was performed using Fugene 6 (Roche, Indianapolis Ind., USA) according to the manufacturer's protocol.
Voltage-clamp recordings in CHO cells were performed, using the whole-cell configuration of the patch-clamp technique. Signals were amplified using an Axopatch 200B patch-clamp amplifier (Molecular Devices, Sunnyvale, Calif.), sampled at 2 kHz and filtered at 800 Hz via a 4-pole Bessel low pass filter. […] The patch pipettes were pulled from borosilicate glass (Warner Instrument Corp, USA) with a resistance of 2-5 MΩ. For K^+ current recordings in CHO cells, the intracellular pipette solution contained (in mM): 130 KCl, 1 MgCl2, 5 K2ATP, 5 EGTA, 10 HEPES, adjusted with KOH to pH 7.4 (290 mOsm). The extracellular solution contained (in mM): 140 NaCl, 4 KCl, 1.8 CaCl2, 1.2 MgCl2, 11 glucose, 5.5 HEPES, adjusted with NaOH to pH 7.4 (310 mOsm).
Data analysis was performed using the Clampfit program (pClamp 9.2, Molecular Devices), Microsoft Excel (Microsoft) and Prism 4.0 (GraphPad). Chord conductance (G) was calculated by using the following equation: G=I/(V−Vrev) where I corresponds to the current amplitude measured at the end of the pulse and Vrev, the calculated reversal potential. G was estimated at various test voltages V and then, normalized to a maximal conductance value, Gmax. Activation curves were fitted by one Boltzmann distribution: G/Gmax=1/{1+exp[(V50−V)/s]} where V50 is the voltage at which the current is half-activated and s is the slope factor. All data were expressed as mean±SEM. Statistically significant differences were assessed by Student's t-test. Analysis of sEPSCs and sIPSCs was done using the Clampfit program (pClamp 9.2, Molecular Devices) and included evaluation of the individual events as well as the average event amplitude and the integral of the event (total charge transfer).
In these studies, the impact of the compounds on M-channel activity was measured by the heterologous coexpression of Kv7.2 and Kv7.3 subunits in CHO cells.

DRG neurons [2] = assay: Current-clamp recordings in cultured DRG neurons; type: cell-based, rat; conditions: 1 μM NH17; about 10-20 pA for 400 ms; control 1±0; n=5
COX = assay: Anti-COX activity in cell culture, CT26 and D122 cell lines (results in words); type: cell-based, mouse; conditions: COX-dependent synthesis of PGE2
Procedure: Mouse colon adenocarcinoma CT26 and mouse lewis lung carcinoma D122 cells were grown in DMEM (D122) or RPMI (CT26) supplemented with 10% fetal calf serum, 4% glutamine, 1% penicillin-streptomycin-nystatin and 3% non essential amino acids (D122) and were kept in a humidified 37° C. incubator with 5% CO2. For the COX activity assays, cells were grown onto 24 multi-well plates.
Before the assay, cells were washed with serum-free medium; then the tested compounds were added to the medium and incubated for 30 minutes at 37° C. after which 30 μM arachidonic acid were added and incubated for additional 20 minutes. At the end of the incubation period, 10 μM Indomethacin were added to stop the reaction and medium was transferred to another 24 multi-well plate for measuring PGE2 production by radioimmunoassay (DuPont-NEN; Boston Mass.) according to manufacturer protocol. Protein determination was assayed on scraped cells using the Bradford method (1976) [Bradford M. M. 1976. Anal. Biochem. 72:248-254], with BSA as a standard and was used to normalize the amount of PGE2 production.
The anti-COX activity of NH25, NH29 and NH30 was examined in Mouse colon adenocarcinoma CT26 and mouse lewis lung carcinoma D122 cell lines. Cells were incubated with each of the tested compounds and the level of the COX-dependent synthesis of PGE2 was quantified using radioimmunoassay techniques.

KCNQ2 mutant W236L = target: T2, KCNQ2 mutant W236L (Homo sapiens, UniProt O43526, W236L); assay: KCNQ2 mutant W236L in CHO cells; type: cell-based; conditions: 10 μM retigabine; 10 μM or 25 μM NH29
T2 construct: expressed in transfected cells; host or cells: CHO cells
T2 sequence (O43526 whole entry W236L): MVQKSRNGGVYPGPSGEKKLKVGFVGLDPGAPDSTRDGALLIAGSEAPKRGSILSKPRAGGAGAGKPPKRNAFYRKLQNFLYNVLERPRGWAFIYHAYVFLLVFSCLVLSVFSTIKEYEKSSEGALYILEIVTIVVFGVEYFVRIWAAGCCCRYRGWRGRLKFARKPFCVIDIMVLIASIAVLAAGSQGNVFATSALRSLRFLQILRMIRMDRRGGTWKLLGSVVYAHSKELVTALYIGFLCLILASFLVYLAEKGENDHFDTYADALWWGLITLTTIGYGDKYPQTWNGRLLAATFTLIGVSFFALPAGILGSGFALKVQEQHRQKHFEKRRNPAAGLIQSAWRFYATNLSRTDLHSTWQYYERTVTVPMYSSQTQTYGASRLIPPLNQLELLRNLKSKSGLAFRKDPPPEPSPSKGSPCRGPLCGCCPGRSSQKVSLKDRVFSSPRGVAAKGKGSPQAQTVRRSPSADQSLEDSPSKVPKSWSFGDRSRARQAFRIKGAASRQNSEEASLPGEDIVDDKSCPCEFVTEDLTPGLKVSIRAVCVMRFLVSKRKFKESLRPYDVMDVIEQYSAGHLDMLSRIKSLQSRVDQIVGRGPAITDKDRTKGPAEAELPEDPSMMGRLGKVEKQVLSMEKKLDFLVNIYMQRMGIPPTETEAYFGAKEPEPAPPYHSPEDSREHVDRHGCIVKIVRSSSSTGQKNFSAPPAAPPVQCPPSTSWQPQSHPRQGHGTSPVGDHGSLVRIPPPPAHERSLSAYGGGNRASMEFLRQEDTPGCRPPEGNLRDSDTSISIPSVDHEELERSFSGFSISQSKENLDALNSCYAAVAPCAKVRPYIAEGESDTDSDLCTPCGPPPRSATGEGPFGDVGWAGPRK
Procedure: FIGS. 11A-F present the potentiating effect of NH29, an exemplary channel opener compound according to embodiments of the present invention, and Retigabine, on KCNQ2 mutants R207W and W236L mutant. Shown are representative traces recorded from CHO cell transfected with the KCNQ2 mutant R207W 0, 1 and 4-4.5 minutes after external application of 25 μM of NH29 and wherein the membrane potential was stepped from −90 mV holding potential to −20 mV for 1.5 seconds pulse duration (FIG. 11A), or 0, 1 and 4 minutes after external application of 25 μM of Retigabine wherein the membrane potential was stepped from −90 mV holding potential to −40 mV for 1.5 seconds pulse duration (FIG. 11B). FIGS. 11C and 11D show representative traces recorded from CHO cells transfected with the KCNQ2 mutant W236L 0, 1 and 6 minutes after external application of 25 μM of NH29 (FIG. 11C) or 0 and 5 minutes after external application of 10 μM of Retigabine (FIG. 11D) and wherein the membrane potential was stepped from −90 mV holding potential to −40 mV for 1.5 seconds pulse duration. […]
Voltage-clamp recordings in CHO cells were performed, using the whole-cell configuration of the patch-clamp technique. […] Series resistances (3-13 MΩ) were compensated (75-90%) and periodically monitored.

KCNQ2 mutant R198A = target: T3, KCNQ2 mutant R198A (Homo sapiens, UniProt O43526, R198A); assay: KCNQ2 S4 mutant R198A; type: cell-based; conditions: RTG
T3 construct: expressed in transfected cells
T3 sequence (O43526 whole entry R198A): as the sequence (O43526 whole entry W236L) above, with R198A, L236W counted along it
Text: (§1) FIGS. 12A-F present the potentiating effect of NH29, an exemplary channel opener compound according to embodiments of the present invention, on selected KCNQ2 mutants. Shown are bar diagrams comparing the potentiating effect of NH29 on native KCNQ2 and KCNQ2 mutants, wherein the mutated amino acids are located at the S1-S2 helix region (FIG. 12A) or S4 helix region (FIG. 12D) and wherein the opener effect is expressed as percent of the control current in the absence of the opener. For comparison, marked as a green line, is the observed current increase of native KCNQ2 by NH29. FIGS. 12B 12C, 12E and 12F present representative traces recorded from CHO cell transfected with the KCNQ2 mutant S122A, S121A, L206C and R201A respectively, before and after external application of 25 μM of NH29 and wherein the membrane potential was stepped from −90 mV holding potential to −40 mV for 1.5 seconds pulse duration.
(§2) Voltage-clamp recordings in CHO cells were performed, using the whole-cell configuration of the patch-clamp technique. Signals were amplified using an Axopatch 200B patch-clamp amplifier (Molecular Devices, Sunnyvale, Calif.), sampled at 2 kHz and filtered at 800 Hz via a 4-pole Bessel low pass filter. […] Series resistances (3-13 MΩ) were compensated (75-90%) and periodically monitored.

KCNQ2 mutant R207W = target: T4, KCNQ2 mutant R207W (Homo sapiens, UniProt O43526, R207W); type: cell-based; conditions: RTG (25 μM, −40 mV, FIG. 11B)
T4 construct: expressed in transfected cells; host or cells: CHO cells
T4 sequence (O43526 whole entry R207W): as the sequence (O43526 whole entry W236L) above, with R207W, L236W counted along it
Text: FIGS. 10A-D present the potentiating effect of NH29, an exemplary channel opener compound according to embodiments of the present invention, on wild type KCNQ2 (FIGS. 10A and 10B) and R207W mutant (FIGS. 10C and 10D) channels, as expressed in activation curve measurements, showing that NH29 left-shifts the activation curve (ΔV50) by −15.5 mV and −5.5 mV in the case of the wild-type and the mutant, respectively, and showing that NH29 enhances the current of wild-type and the mutant by about 3.4-fold (at −40 mV) and 1.5-fold (at −20 mV), respectively.
FIGS. 11A-F present the potentiating effect of NH29, an exemplary channel opener compound according to embodiments of the present invention, and Retigabine, on KCNQ2 mutants R207W and W236L mutant. Shown are representative traces recorded from CHO cell transfected with the KCNQ2 mutant R207W 0, 1 and 4-4.5 minutes after external application of 25 μM of NH29 and wherein the membrane potential was stepped from −90 mV holding potential to −20 mV for 1.5 seconds pulse duration (FIG. 11A), or 0, 1 and 4 minutes after external application of 25 μM of Retigabine wherein the membrane potential was stepped from −90 mV holding potential to −40 mV for 1.5 seconds pulse duration (FIG. 11B). FIGS. 11C and 11D show representative traces recorded from CHO cells transfected with the KCNQ2 mutant W236L 0, 1 and 6 minutes after external application of 25 μM of NH29 (FIG. 11C) or 0 and 5 minutes after external application of 10 μM of Retigabine (FIG. 11D) and wherein the membrane potential was stepped from −90 mV holding potential to −40 mV for 1.5 seconds pulse duration. FIG. 11E presents superimposed traces, showing the effects of Retigabine (RTG) and NH29 on the channel activity of KCNQ2 mutant W236L as measured at −40 mV; and FIG. 11F presents a bar diagram comparing the potentiating effect of NH29 and Retigabine on native KCNQ2 and KCNQ2 mutants, wherein the opener effect is expressed as percent of the control current in the absence of the opener.
Voltage-clamp recordings in CHO cells were performed, using the whole-cell configuration of the patch-clamp technique. Signals were amplified using an Axopatch 200B patch-clamp amplifier (Molecular Devices, Sunnyvale, Calif.), sampled at 2 kHz and filtered at 800 Hz via a 4-pole Bessel low pass filter. Data were acquired using pClamp 9.2 software (Molecular Devices) and an IBM compatible Pentium IV computer in conjunction with a DigiData 1322A interface (Molecular Devices). The patch pipettes were pulled from borosilicate glass (Warner Instrument Corp, USA) with a resistance of 2-5 MΩ. For K^+ current recordings in CHO cells, the intracellular pipette solution contained (in mM): 130 KCl, 1 MgCl2, 5 K2ATP, 5 EGTA, 10 HEPES, adjusted with KOH to pH 7.4 (290 mOsm). The extracellular solution contained (in mM): 140 NaCl, 4 KCl, 1.8 CaCl2, 1.2 MgCl2, 11 glucose, 5.5 HEPES, adjusted with NaOH to pH 7.4 (310 mOsm). Series resistances (3-13 MΩ) were compensated (75-90%) and periodically monitored.

KCNQ2 mutant S121A = target: T5, KCNQ2 mutant S121A (Homo sapiens, UniProt O43526, S121A); assay: KCNQ2 S1-S2 mutant S121A in CHO cells; type: cell-based; conditions: RTG
T5 construct: expressed in transfected cells; host or cells: CHO cells
T5 sequence (O43526 whole entry S121A): as the sequence (O43526 whole entry W236L) above, with S121A, L236W counted along it
Text: as §1, §2

Row | SMILES | decrease in rheobase current (DRG neurons [1]; 1 μM NH17) | depolarization of DRG membrane potential (ΔV) (DRG neurons [1]; 1 μM NH17, within 2 minutes) | rheobase current to generate a single spike (DRG neurons [1]; 1 μM NH17, 2 ms injection, control 650±71 pA, n=6) [pA] | inhibition at 25 µM (Kv7.2/3 channels; CHO, 25 μM, membrane potentials from −60 to +50 mV, read-out: inhibition of the Kv7.2/3 current) [%] | Activity (Kv7.2/3 channels) | EC50 (Kv7.2/3 channels; compounds whose Activity is Blocker) [µM] | IC50 (Kv7.2/3 channels; recombinant Kv7.2/3 in CHO cells, read-out: IC50, blockade of the K+ currents) [µM] | number of evoked spikes (DRG neurons [2]) | ΔV50 (mV) (Kv7.2/3 channels; left-shift of the activation curve of Kv7.2/3 channels) | EC50 (Kv7.2/3 channels; opener potency, concentration-dependent left-shift in half-activation potential ΔV50, sigmoidal fit) [µM] | anti-COX activity (COX) | effect of point mutation W236L on the opener effect (KCNQ2 mutant W236L) | fold increase of current amplitude (KCNQ2 mutant R198A) [fold] | fold increase of current amplitude (KCNQ2 mutant R207W) | fold increase of current (KCNQ2 mutant S121A)
1 | Cl.NCCOCCOC(=O)Cc1ccccc1Nc1c(Cl)cccc1Cl [NH17] | about 300 pA | +7±1 mV | 347±44 | > 90 | potent M-channel blockers; also recorded: Blocker | 11 | 11 | 12±2 |  |  |  |  |  |  | 
2 | O=C(Cc1cc([N+](=O)[O-])ccc1Nc1c(Cl)cccc1Cl)NCCO [NH30] |  |  |  |  | Opener |  |  |  | −12.2 | 17 | did not exhibit anti-COX activity |  |  |  | 
3 | CCOC(=O)Nc1ccc(NCc2ccc(F)cc2)cc1N [retigabine, N-(2-amino-4-(4-fluorobenzylamino)-phenyl)carbamic acid ethyl ester, reference compound] |  |  |  |  |  |  |  |  |  |  |  | completely abolished the opener effect | 4.4 | more than 6 fold | more than 5 fold
